Laboratory results reported in PubChem BioAssay AID248 (DTP/NCI, 2004).
Values joined by “and” are separate entries in the source; they are usually repeats but may differ in a detail not shown here. Equal values may be shown once. Toxic doses and inconclusive results are not listed. Rule as the data show it: active = T/C of 150% or more; inactive = T/C below 125%.

Tested on: L1210 leukemia ip in BDF1 mice, survival T/C
Test: NCI In Vivo Anticancer Drug Screen. Data for tumor model L1210 Leukemia (intraperitoneal) in B6D2F1 (BDF1) mice
Conditions: endpoint: mean survival time, higher = longer survival
In short: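 Tumor was transplanted into mice, which were then dosed with test compound or vehicle alone. Survival was recorded for each group, and the treated figure was expressed relative to the control figure.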

[1] = dose: 100.0 mg/kg/injection, schedule: Q04DX003 (ip), vehicle: saline with Tween-80
[2] = dose: 200.0 mg/kg/injection, schedule: Q04DX003 (ip), vehicle: saline with Tween-80
[3] = dose: 100.0 mg/kg/injection, schedule: Q04DX003 (ip), vehicle: Klucel (hydroxypropylcellulose) (HPC)
[4] = dose: 200.0 mg/kg/injection, schedule: Q04DX003 (ip), vehicle: Klucel (hydroxypropylcellulose) (HPC)
[5] = dose: 400.0 mg/kg/injection, schedule: Q04DX003 (ip), vehicle: Klucel (hydroxypropylcellulose) (HPC)
[6] = dose: 100.0 mg/kg/injection, schedule: Q01DX001 (ip), vehicle: Klucel (hydroxypropylcellulose) (HPC)
[7] = dose: 100.0 mg/kg/injection, schedule: Q01DX009 (ip), vehicle: Klucel (hydroxypropylcellulose) (HPC)
[8] = dose: 200.0 mg/kg/injection, schedule: Q01DX001 (ip), vehicle: Klucel (hydroxypropylcellulose) (HPC)
[9] = dose: 200.0 mg/kg/injection, schedule: Q01DX009 (ip), vehicle: Klucel (hydroxypropylcellulose) (HPC)
[10] = dose: 400.0 mg/kg/injection, schedule: Q01DX001 (ip), vehicle: Klucel (hydroxypropylcellulose) (HPC)
[11] = dose: 400.0 mg/kg/injection, schedule: Q04DX003 (ip), vehicle: saline with Tween-80
[12] = dose: 400.0 mg/kg/injection, schedule: Q01DX009 (ip), vehicle: Klucel (hydroxypropylcellulose) (HPC)
[13] = dose: 100.0 mg/kg/injection, schedule: Q01DX001 (ip), vehicle: saline
[14] = dose: 200.0 mg/kg/injection, schedule: Q01DX001 (ip), vehicle: saline
[15] = dose: 400.0 mg/kg/injection, schedule: Q01DX001 (ip), vehicle: saline
[16] = dose: 100.0 mg/kg/injection, schedule: Q01DX009 (ip), vehicle: saline with Tween-80
[17] = dose: 200.0 mg/kg/injection, schedule: Q01DX009 (ip), vehicle: saline with Tween-80
[18] = dose: 100.0 mg/kg/injection, schedule: Q01DX009 (ip), vehicle: saline
[19] = dose: 200.0 mg/kg/injection, schedule: Q01DX009 (ip), vehicle: saline
[20] = dose: 400.0 mg/kg/injection, schedule: Q01DX009 (ip), vehicle: saline
[21] = dose: 100.0 mg/kg/injection, schedule: Q01DX001 (ip), vehicle: saline with Tween-80
[22] = dose: 200.0 mg/kg/injection, schedule: Q01DX001 (ip), vehicle: saline with Tween-80
[23] = dose: 100.0 mg/kg/injection, schedule: Q04DX003 (ip), vehicle: saline
[24] = dose: 200.0 mg/kg/injection, schedule: Q04DX003 (ip), vehicle: saline
[25] = dose: 100.0 mg/kg/injection, schedule: Q01DX001 (ip), vehicle: carboxymethylcellulose (CMC)
[26] = dose: 200.0 mg/kg/injection, schedule: Q01DX001 (ip), vehicle: carboxymethylcellulose (CMC)
[27] = dose: 400.0 mg/kg/injection, schedule: Q01DX001 (ip), vehicle: carboxymethylcellulose (CMC)

Measured: T/C

COc1cc(C(=O)C[n+]2ccccc2)ccc1O
inactive: [1] 93 % of control | [2] 93 % of control

CC1c2ccccc2N(S(=O)(=O)c2ccccc2)C1C (stereo unspecified)
inactive: dose: 100.0 mg/kg/injection, schedule: Q01DX009 (ip), vehicle: gum acacia 108 % of control | dose: 100.0 mg/kg/injection, schedule: Q04DX003 (ip), vehicle: gum acacia 96 % of control | dose: 200.0 mg/kg/injection, schedule: Q01DX009 (ip), vehicle: gum acacia 104 % of control | dose: 200.0 mg/kg/injection, schedule: Q04DX003 (ip), vehicle: gum acacia 102 % of control | dose: 400.0 mg/kg/injection, schedule: Q01DX009 (ip), vehicle: gum acacia 93 % of control | dose: 400.0 mg/kg/injection, schedule: Q04DX003 (ip), vehicle: gum acacia 96 % of control

ClCCCN1Cc2ccccc2CCc2ccccc2C1
inactive: [3] 102 % of control | [4] 100 % of control | [5] 107 % of control

O=C(O)/C(=C\c1ccc([N+](=O)[O-])cc1)c1cccc(Cl)c1
inactive: [6] 108 % of control | [7] 96 % of control and 97 % of control | dose: 100.0 mg/kg/injection, schedule: Q04DX002 (ip), vehicle: Klucel (hydroxypropylcellulose) (HPC) 94 % of control and 89 % of control | [3] 106 % of control | [8] 103 % of control | [9] 97 % of control and 102 % of control | dose: 200.0 mg/kg/injection, schedule: Q04DX002 (ip), vehicle: Klucel (hydroxypropylcellulose) (HPC) 101 % of control and 102 % of control | [4] 97 % of control | [10] 98 % of control | dose: 400.0 mg/kg/injection, schedule: Q04DX002 (ip), vehicle: Klucel (hydroxypropylcellulose) (HPC) 99 % of control | [5] 99 % of control

CCS(=O)(=O)c1ccc(NC(=O)OC2CCCCCCC2)cc1
inactive: dose: 100.0 mg/kg/injection, schedule: Q01DX001 (ip), vehicle: other 93 % of control | dose: 200.0 mg/kg/injection, schedule: Q01DX001 (ip), vehicle: other 93 % of control | dose: 400.0 mg/kg/injection, schedule: Q01DX001 (ip), vehicle: other 93 % of control

CCCCCCC(C)O[Si](C)c1ccc(CC)cc1 (stereo unspecified)
inactive: [1] 99 % of control | [2] 95 % of control | [11] 103 % of control

COc1ccc(Cl)cc1NC(=O)Nc1cc(C)ccn1
inactive: [7] 104 % of control | [9] 100 % of control | [12] 88 % of control

OC(CCCCC(O)(c1ccccc1)c1ccccc1)(c1ccccc1)c1ccccc1
inactive: [1] 89 % of control | [2] 94 % of control | [11] 96 % of control

CCCCNC(=O)Nc1cc(C)cc(C)n1
inactive: [7] 100 % of control | [3] 94 % of control | [9] 104 % of control | [4] 102 % of control | [12] 91 % of control | [5] 98 % of control

CCOC(=O)C(C(=O)CC(C)C)C(C)C (stereo unspecified)
inactive: dose: 50.0 mg/kg/injection, schedule: Q01DX001 (ip), vehicle: saline 103 % of control | [13] 103 % of control | [14] 109 % of control | [15] 101 % of control

CCCCCCCCCCCCCC(=O)OC1CCC2(C)C(=CCC3C2CCC2(C)C(C(C)CCCC(C)C)CCC32)C1 (stereo unspecified)
inactive: dose: 50.0 mg/kg/injection, schedule: Q01DX001 (ip), vehicle: Klucel (hydroxypropylcellulose) (HPC) 96 % of control | [6] 89 % of control | [8] 87 % of control and 89 % of control | [10] 87 % of control

Cc1cc([N+](=O)[O-])c2ccccc2c1N
inactive: [16] 117 % of control | [17] 98 % of control | dose: 400.0 mg/kg/injection, schedule: Q01DX009 (ip), vehicle: saline with Tween-80 105 % of control

CC(=O)OCC1OC(n2cnc3c(=O)[nH]nnc32)C(OC(C)=O)C1OC(C)=O (stereo unspecified)
inactive: dose: 100.0 mg/kg/injection, schedule: Q01DX005 (ip), vehicle: saline 96 % of control | [18] 94 % of control | dose: 200.0 mg/kg/injection, schedule: Q01DX005 (ip), vehicle: saline 104 % of control | [19] 92 % of control | [20] 99 % of control

CCN(CC)C(=S)SS(C)(=O)=O
inactive: [13] 101 % of control | dose: 100.0 mg/kg/injection, schedule: Q04DX003 (ip), vehicle: acetone 97 % of control | [14] 97 % of control | dose: 200.0 mg/kg/injection, schedule: Q04DX003 (ip), vehicle: acetone 103 % of control | [15] 97 % of control | dose: 400.0 mg/kg/injection, schedule: Q04DX003 (ip), vehicle: acetone 101 % of control

O=[N+]([O-])c1ccc(N/N=C/C23CC4CC(CC(C4)C2)C3)c([N+](=O)[O-])c1
inactive: dose: 3.12 mg/kg/injection, schedule: Q04DX002 (ip), vehicle: Klucel (hydroxypropylcellulose) (HPC) 121 % of control | dose: 6.25 mg/kg/injection, schedule: Q04DX002 (ip), vehicle: Klucel (hydroxypropylcellulose) (HPC) 110 % of control | dose: 12.5 mg/kg/injection, schedule: Q04DX002 (ip), vehicle: Klucel (hydroxypropylcellulose) (HPC) 113 % of control | dose: 25.0 mg/kg/injection, schedule: Q04DX002 (ip), vehicle: Klucel (hydroxypropylcellulose) (HPC) 94 % of control | [6] 98 % of control

O=C(CCN1CC1)Oc1ccc(Cl)cc1
inactive: [21] 97 % of control | [22] 95 % of control | dose: 400.0 mg/kg/injection, schedule: Q01DX001 (ip), vehicle: saline with Tween-80 95 % of control

CC(=O)Nc1c(O)c(Cl)c(Cl)c(Cl)c1Cl
inactive: [23] 105 % of control | [24] 101 % of control | dose: 400.0 mg/kg/injection, schedule: Q04DX003 (ip), vehicle: saline 94 % of control

OCCSC1=NCCN1
inactive: [25] 97 % of control | [23] 109 % of control | [26] 100 % of control | [24] 103 % of control | [27] 94 % of control

CCOC(=O)OC(C#N)c1ccccc1 (stereo unspecified)
inactive: dose: 12.5 mg/kg/injection, schedule: Q01DX009 (ip), vehicle: saline with Tween-80 93 % of control | dose: 25.0 mg/kg/injection, schedule: Q01DX009 (ip), vehicle: saline with Tween-80 94 % of control

COc1cc([N+](=O)[O-])cc2c(C)cc(=O)[nH]c12
inactive: [13] 95 % of control | [18] 103 % of control | [14] 99 % of control | [19] 92 % of control | [15] 93 % of control | [20] 93 % of control

O=C(Nc1ccc(F)cc1)Nc1cc([N+](=O)[O-])ccc1F
inactive: [3] 117 % of control | [4] 102 % of control | [5] 101 % of control

CCNCCCNCC
inactive: dose: 75.0 mg/kg/injection, schedule: Q01DX001 (ip), vehicle: saline 100 % of control | dose: 150.0 mg/kg/injection, schedule: Q01DX001 (ip), vehicle: saline 93 % of control

C=CCOCC(O)CN(CC(C)C)CC(C)C (stereo unspecified)
inactive: [7] 112 % of control | [3] 95 % of control | [9] 101 % of control | [4] 88 % of control | [5] 105 % of control

O=[N+]([O-])c1ccccc1CC1=NCCc2cc3c(cc21)OCO3
inactive: [13] 100 % of control | [14] 102 % of control | [15] 104 % of control

CN(C)/N=N/c1nc[nH]c1C#N
inactive: [16] 107 % of control | [1] 110 % of control | [17] 115 % of control | [2] 98 % of control | [11] 102 % of control

CSc1nc(N)c(N=Nc2ccc(S(=O)(=O)Nc3nnc(C)s3)cc2)c(=O)[nH]1
inactive: [25] 95 % of control | [26] 97 % of control | [27] 101 % of control

C=C1CCC(c2ccccc2)N(C)C1=O (stereo unspecified)
inactive: dose: 25.0 mg/kg/injection, schedule: Q01DX001 (ip), vehicle: saline with Tween-80 104 % of control | dose: 50.0 mg/kg/injection, schedule: Q01DX001 (ip), vehicle: saline with Tween-80 101 % of control | [21] 98 % of control | [22] 98 % of control
